From ChEMBL document CHEMBL2311250 (Bioorg Med Chem Lett, 2013)
≈ marks a conversion by molar mass, not a printed value.

Columns and labels:
[1] = target: Serine/threonine-protein kinase Chk1 (Homo sapiens, UniProt O14757); test: Inhibition of CHK1 (unknown origin) in presence of ATP
[2] = target: Cyclin-dependent kinase 2/cyclin A (Homo sapiens, UniProt P24941); test: Inhibition of CDK2/cyclin A (unknown origin) in presence of ATP; assay type: protein-complex assay
[3] = target: Mitogen-activated protein kinase kinase kinase 9 (Homo sapiens, UniProt P80192); test: Inhibition of MAP3K9 (unknown origin) in presence of ATP
[4] = target: Tyrosine-protein kinase ABL1 (Homo sapiens, UniProt P00519); test: Inhibition of ABL (unknown origin) in presence of ATP
[5] = target: Serine/threonine-protein kinase MARK1 (Homo sapiens, UniProt Q9P0L2); test: Inhibition of MARK1 (unknown origin) in presence of ATP
[6] = Half life in rat liver microsomes; assay type: ADME, Microsome
[7] = target: hERG (KCNH2) (Homo sapiens, UniProt Q12809); test: Displacement of [3H]dofetilide from human ERG at 10 uM; conditions: probe [3H]dofetilide
[8] = target: Ephrin type-A receptor 2 (Homo sapiens, UniProt P29317); test: Inhibition of ECK (unknown origin) in presence of ATP
[9] = target: Aurora kinase A (Homo sapiens, UniProt O14965); test: Inhibition of Aurora-A (unknown origin) in presence of ATP
[10] = target: Serine/threonine-protein kinase 26 (Homo sapiens, UniProt Q9P289); test: Inhibition of MASK (unknown origin) in presence of ATP
[11] = target: Casein kinase I isoform delta (Homo sapiens, UniProt P48730); test: Inhibition of CK1-delta (unknown origin) in presence of ATP
[12] = Half life in human liver microsomes; assay type: ADME, Microsome
[13] = Aqueous solubility of the compound at ph 6.5; assay type: physicochemical
[14] = target: CDK6/cyclin D3 (Homo sapiens, UniProt Q00534); test: Inhibition of CDK6/cyclin D3 (unknown origin) in presence of ATP; assay type: protein-complex assay
[15] = target: Dual specificity protein kinase CLK1 (Homo sapiens, UniProt P49759); test: Inhibition of CLK1 (unknown origin) in presence of ATP
[16] = target: RAC-alpha serine/threonine-protein kinase (Homo sapiens, UniProt P31749); test: Inhibition of AKT1 (unknown origin) in presence of ATP
[17] = target: Serine/threonine-protein kinase Nek2 (Homo sapiens, UniProt P51955); test: Inhibition of NEK2 (unknown origin) in presence of ATP
[18] = target: Tyrosine-protein kinase BTK (Homo sapiens, UniProt Q06187); test: Inhibition of BTK (unknown origin) in presence of ATP
[19] = target: Serine/threonine-protein kinase 3 (Homo sapiens, UniProt Q13188); test: Inhibition of MST2 (unknown origin) in presence of ATP
[20] = target: Tyrosine-protein kinase Lck (Homo sapiens, UniProt P06239); test: Inhibition of LCK (unknown origin) in presence of ATP
[21] = target: Inhibitor of nuclear factor kappa-B kinase subunit beta (Homo sapiens, UniProt O14920); test: Inhibition of IKK-beta (unknown origin) in presence of ATP
[22] = target: Glycogen synthase kinase-3 beta (Homo sapiens, UniProt P49841); test: Inhibition of GSK3-beta (unknown origin) in presence of ATP
[23] = Permeability of the compound by PAMPA; assay type: ADME; conditions: read-out: permeability
[24] = target: Casein kinase II (Homo sapiens, UniProt P19784+P67870+P68400); test: Inhibition of CK2 (unknown origin) in presence of ATP; assay type: protein-complex assay
[25] = target: Serine/threonine-protein kinase Chk2 (Homo sapiens, UniProt O96017); test: Inhibition of CHK2 (unknown origin) in presence of ATP
[26] = target: Mitogen-activated protein kinase 1 (Homo sapiens, UniProt P28482); test: Inhibition of MAPK1/ERK2 (unknown origin) in presence of ATP
[27] = target: Myosin light chain kinase 2, skeletal/cardiac muscle (Homo sapiens, UniProt Q9H1R3); test: Inhibition of MYLK2 (unknown origin) in presence of ATP
[28] = target: MAP kinase-activated protein kinase 2 (Homo sapiens, UniProt P49137); test: Inhibition of MAPKAP-K2 (unknown origin) in presence of ATP
[29] = target: Calcium/calmodulin-dependent protein kinase type 1 (Homo sapiens, UniProt Q14012); test: Inhibition of CAMK1 (unknown origin) in presence of ATP
[30] = target: Fibroblast growth factor receptor 1 (Homo sapiens, UniProt P11362); test: Inhibition of FGFR1 (unknown origin) in presence of ATP
[31] = target: Inhibitor of nuclear factor kappa-B kinase subunit epsilon (Homo sapiens, UniProt Q14164); test: Inhibition of IKKi (unknown origin) in presence of ATP
[32] = target: CYP2D6 (Homo sapiens, UniProt P10635); test: Inhibition of CYP2D6 (unknown origin) at 3 uM; assay type: ADME
[33] = target: Tyrosine-protein kinase JAK3 (Homo sapiens, UniProt P52333); test: Inhibition of JAK3 (unknown origin) in presence of ATP

Chain of Inhibitor of nuclear factor kappa-B kinase subunit beta (O14920 whole entry): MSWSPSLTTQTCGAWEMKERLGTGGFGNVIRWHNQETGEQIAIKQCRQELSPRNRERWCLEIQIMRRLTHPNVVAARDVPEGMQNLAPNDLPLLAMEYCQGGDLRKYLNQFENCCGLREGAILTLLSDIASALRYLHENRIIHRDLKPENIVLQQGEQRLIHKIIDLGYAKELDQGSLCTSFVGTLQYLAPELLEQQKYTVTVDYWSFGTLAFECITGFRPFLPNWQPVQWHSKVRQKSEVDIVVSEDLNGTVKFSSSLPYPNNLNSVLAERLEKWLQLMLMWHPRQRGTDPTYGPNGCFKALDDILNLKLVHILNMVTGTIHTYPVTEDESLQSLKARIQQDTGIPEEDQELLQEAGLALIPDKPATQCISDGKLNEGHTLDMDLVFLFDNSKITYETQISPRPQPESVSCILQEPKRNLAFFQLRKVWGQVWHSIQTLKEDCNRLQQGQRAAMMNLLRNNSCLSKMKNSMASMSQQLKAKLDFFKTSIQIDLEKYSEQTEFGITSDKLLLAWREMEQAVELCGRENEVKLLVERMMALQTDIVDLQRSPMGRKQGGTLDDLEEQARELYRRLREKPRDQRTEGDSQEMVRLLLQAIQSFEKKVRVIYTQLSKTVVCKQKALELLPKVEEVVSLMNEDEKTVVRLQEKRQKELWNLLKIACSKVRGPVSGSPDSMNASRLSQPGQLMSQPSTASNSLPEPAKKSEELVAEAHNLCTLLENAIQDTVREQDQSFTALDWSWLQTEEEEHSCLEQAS
Chain of Serine/threonine-protein kinase Chk2 (O96017 whole entry): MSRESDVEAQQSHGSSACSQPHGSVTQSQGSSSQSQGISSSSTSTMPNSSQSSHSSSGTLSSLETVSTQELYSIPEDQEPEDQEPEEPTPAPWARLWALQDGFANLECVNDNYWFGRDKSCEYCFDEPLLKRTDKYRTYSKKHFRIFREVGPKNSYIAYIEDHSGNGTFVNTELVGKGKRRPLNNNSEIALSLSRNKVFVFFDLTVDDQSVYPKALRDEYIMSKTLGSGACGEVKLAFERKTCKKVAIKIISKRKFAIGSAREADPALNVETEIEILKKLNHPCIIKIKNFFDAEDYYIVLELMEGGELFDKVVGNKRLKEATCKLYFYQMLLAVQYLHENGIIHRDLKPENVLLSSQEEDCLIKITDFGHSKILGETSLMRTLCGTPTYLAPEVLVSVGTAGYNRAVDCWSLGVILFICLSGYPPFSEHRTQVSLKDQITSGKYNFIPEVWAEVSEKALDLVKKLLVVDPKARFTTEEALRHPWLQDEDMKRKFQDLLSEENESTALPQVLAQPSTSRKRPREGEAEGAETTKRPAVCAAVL
Chain of RAC-alpha serine/threonine-protein kinase (P31749 whole entry): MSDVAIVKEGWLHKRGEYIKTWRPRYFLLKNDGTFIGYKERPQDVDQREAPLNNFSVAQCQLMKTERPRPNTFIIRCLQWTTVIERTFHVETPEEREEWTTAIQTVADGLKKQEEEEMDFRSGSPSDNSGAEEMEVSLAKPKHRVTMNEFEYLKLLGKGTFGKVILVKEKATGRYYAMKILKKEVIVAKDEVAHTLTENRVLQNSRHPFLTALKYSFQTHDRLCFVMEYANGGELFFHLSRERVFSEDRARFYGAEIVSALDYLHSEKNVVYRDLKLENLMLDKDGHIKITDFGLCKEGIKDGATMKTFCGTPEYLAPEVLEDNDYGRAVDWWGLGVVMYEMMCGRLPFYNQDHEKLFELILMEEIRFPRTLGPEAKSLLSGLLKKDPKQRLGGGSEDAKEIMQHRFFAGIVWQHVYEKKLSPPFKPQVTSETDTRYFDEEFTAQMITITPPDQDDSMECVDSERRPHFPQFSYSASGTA
Chain of Myosin light chain kinase 2, skeletal/cardiac muscle (Q9H1R3 whole entry): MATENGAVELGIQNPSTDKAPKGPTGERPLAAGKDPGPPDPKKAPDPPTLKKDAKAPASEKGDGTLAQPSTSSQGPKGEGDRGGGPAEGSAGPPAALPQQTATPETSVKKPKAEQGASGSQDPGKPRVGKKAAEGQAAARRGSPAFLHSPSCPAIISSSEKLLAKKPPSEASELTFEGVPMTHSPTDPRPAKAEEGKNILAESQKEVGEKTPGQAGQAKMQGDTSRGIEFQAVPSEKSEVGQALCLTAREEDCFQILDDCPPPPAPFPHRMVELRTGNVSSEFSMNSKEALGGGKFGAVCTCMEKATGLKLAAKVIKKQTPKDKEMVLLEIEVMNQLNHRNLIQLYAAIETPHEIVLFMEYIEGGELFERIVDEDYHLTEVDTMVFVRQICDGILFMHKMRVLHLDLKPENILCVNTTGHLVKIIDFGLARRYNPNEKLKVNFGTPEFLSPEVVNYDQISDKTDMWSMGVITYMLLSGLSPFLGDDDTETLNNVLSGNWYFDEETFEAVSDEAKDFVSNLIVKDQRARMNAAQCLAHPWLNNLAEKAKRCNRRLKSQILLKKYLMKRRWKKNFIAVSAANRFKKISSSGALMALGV
Chain of Glycogen synthase kinase-3 beta (P49841 whole entry): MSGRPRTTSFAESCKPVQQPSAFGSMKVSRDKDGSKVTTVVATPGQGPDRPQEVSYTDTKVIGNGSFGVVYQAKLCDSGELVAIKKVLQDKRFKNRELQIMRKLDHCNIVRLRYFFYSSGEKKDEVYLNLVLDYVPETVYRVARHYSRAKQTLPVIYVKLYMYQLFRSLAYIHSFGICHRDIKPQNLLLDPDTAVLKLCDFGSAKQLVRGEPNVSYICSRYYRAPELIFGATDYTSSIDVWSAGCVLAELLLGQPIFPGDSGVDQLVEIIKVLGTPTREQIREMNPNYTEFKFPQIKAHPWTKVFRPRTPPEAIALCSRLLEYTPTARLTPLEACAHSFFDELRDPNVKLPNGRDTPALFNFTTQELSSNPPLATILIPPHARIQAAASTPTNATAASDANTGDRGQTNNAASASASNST
Chain of Tyrosine-protein kinase BTK (Q06187 whole entry): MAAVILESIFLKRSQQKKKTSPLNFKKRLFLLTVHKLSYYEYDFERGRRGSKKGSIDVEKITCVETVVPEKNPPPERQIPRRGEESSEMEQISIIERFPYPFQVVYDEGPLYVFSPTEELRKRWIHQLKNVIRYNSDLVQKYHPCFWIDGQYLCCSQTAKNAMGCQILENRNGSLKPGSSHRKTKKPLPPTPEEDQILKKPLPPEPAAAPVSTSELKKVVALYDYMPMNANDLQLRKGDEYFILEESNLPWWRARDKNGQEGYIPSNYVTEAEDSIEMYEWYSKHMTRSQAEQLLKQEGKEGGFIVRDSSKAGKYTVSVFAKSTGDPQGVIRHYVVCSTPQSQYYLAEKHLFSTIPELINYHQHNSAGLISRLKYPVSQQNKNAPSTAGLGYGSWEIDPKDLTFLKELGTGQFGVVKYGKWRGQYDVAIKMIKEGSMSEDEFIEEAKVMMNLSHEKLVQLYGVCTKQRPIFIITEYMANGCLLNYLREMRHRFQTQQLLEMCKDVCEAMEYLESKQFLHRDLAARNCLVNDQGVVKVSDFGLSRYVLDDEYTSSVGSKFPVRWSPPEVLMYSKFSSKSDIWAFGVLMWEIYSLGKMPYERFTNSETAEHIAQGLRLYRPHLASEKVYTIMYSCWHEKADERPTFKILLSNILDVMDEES
Chain of MAP kinase-activated protein kinase 2 (P49137 whole entry): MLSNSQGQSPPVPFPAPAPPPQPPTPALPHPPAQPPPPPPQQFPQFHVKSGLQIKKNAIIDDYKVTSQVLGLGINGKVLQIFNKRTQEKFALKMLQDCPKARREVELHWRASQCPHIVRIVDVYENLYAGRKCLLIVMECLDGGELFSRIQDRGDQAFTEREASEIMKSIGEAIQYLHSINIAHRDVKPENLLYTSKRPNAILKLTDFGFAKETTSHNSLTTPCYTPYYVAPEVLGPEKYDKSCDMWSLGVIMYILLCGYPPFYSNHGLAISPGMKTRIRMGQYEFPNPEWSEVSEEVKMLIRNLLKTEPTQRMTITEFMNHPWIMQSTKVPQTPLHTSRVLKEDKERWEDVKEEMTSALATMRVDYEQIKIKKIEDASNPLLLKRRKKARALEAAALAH
Chain of Dual specificity protein kinase CLK1 (P49759 whole entry): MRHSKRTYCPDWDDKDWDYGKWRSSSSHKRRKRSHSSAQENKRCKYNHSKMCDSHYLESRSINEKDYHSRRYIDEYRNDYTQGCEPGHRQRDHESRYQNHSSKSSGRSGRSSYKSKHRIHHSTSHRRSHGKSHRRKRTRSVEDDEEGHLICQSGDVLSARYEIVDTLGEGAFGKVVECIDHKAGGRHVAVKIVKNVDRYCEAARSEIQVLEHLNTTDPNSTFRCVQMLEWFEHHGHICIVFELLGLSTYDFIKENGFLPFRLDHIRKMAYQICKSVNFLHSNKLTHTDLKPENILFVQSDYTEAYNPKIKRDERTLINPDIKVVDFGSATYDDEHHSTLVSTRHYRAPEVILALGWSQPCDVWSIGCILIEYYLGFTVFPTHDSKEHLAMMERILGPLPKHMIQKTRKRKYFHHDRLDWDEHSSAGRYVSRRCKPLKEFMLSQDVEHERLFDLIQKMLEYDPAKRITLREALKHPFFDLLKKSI
Chain of Serine/threonine-protein kinase Chk1 (O14757 whole entry): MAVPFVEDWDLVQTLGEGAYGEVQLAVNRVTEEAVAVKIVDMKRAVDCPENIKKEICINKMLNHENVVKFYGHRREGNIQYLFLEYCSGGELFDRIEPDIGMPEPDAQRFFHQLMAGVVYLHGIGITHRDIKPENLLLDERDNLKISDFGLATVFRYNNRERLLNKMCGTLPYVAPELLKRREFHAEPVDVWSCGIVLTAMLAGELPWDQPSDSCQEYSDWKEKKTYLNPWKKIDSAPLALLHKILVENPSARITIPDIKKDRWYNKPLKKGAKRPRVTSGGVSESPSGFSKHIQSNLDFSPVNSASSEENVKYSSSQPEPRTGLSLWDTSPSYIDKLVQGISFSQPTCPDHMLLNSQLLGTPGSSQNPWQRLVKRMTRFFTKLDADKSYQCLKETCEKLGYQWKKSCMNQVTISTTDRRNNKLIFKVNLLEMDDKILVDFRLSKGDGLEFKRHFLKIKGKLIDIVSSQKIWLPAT

Cc1cc(-c2cnc(Nc3cc(Cl)cc(Cl)c3)nc2NC2CCC(N(C)C)CC2)on1 (stereo not drawn)
IC50 [1]: 1370 nM | IC50 [2]: 1150 nM | IC50 [3]: 160 nM | IC50 [4]: 810 nM | IC50 [5]: 1490 nM | half-life [6]: 6 min | inhibition at 10 µM [7]: 0.35% | IC50 [8]: 2430 nM | IC50 [9]: 1550 nM | IC50 [10]: 3840 nM | IC50 [11]: 110 nM | half-life [12]: 28 min | solubility [13]: 2.3 µM (≈ 1.06 µg/mL) | IC50 [14]: 30000 nM | IC50 [15]: 1630 nM | IC50 [16]: 3100 nM | IC50 [17]: 2510 nM | IC50 [18]: 950 nM | IC50 [19]: 470 nM | IC50 [20]: 220 nM | IC50 [21]: 30000 nM | IC50 [22]: 7740 nM | Papp [23]: 0.03 ×10⁻⁶ cm/s | IC50 [24]: 7560 nM | IC50 [25]: 7970 nM | IC50 [26]: 30000 nM | IC50 [27]: 4860 nM | IC50 [28]: 18600 nM | IC50 [29]: 3880 nM | IC50 [30]: 1710 nM | IC50 [31]: 30000 nM | inhibition at 3 µM [32]: 69% | IC50 [33]: 5300 nM
